From ChEMBL document CHEMBL1139986, “Synthesis and biodistribution of 8-iodo-11-(4-methylpiperazino)-5H-dibenzo[b,e][1,4]-diazepine: Iozapine” (Bioorg Med Chem Lett, 2007)

Tests used:
Conditions in all cases: in vivo
Brain [1] = test: Biodistribution in rabbit brain at 20 MBq after 2.0 hrs; type: ADME, organism-based, Oryctolagus cuniculus
Lung [2] = test: Biodistribution in rabbit lung at 20 MBq after 0.5 hrs; type: ADME, organism-based, Oryctolagus cuniculus
Oryctolagus cuniculus [3] = species: Oryctolagus cuniculus; test: Biodistribution in rabbit whole body at 20 MBq; type: ADME, organism-based
Lung [4] = test: Biodistribution in rabbit lung at 20 MBq after 20.0 hrs; type: ADME, organism-based, Oryctolagus cuniculus
Brain [5] = test: Biodistribution in rabbit brain at 20 MBq after 0.5 hrs; type: ADME, organism-based, Oryctolagus cuniculus
Oryctolagus cuniculus [6] = species: Oryctolagus cuniculus; test: Biodistribution in rabbit whole body at 20 MBq after 2.5 hrs; type: ADME, organism-based
Brain [7] = test: Biodistribution in rabbit brain at 20 MBq; type: ADME, organism-based, Oryctolagus cuniculus
Thyroid gland [8] = test: Biodistribution in rabbit thyroid at 20 MBq after 2.0 hrs; type: ADME, organism-based, Oryctolagus cuniculus
Oryctolagus cuniculus [9] = species: Oryctolagus cuniculus; test: Biodistribution in rabbit whole body at 20 MBq after 2.0 hrs; type: ADME, organism-based
Brain [10] = test: Biodistribution in rabbit brain at 20 MBq after 1.5 hrs; type: ADME, organism-based, Oryctolagus cuniculus
Thyroid gland [11] = test: Biodistribution in rabbit thyroid at 20 MBq after 3.0 hrs; type: ADME, organism-based, Oryctolagus cuniculus
Thyroid gland [12] = test: Biodistribution in rabbit thyroid at 20 MBq; type: ADME, organism-based, Oryctolagus cuniculus
Lung [13] = test: Biodistribution in rabbit lung at 20 MBq after 1.5 hrs; type: ADME, organism-based, Oryctolagus cuniculus
Lung [14] = test: Biodistribution in rabbit lung at 20 MBq after 2.5 hrs; type: ADME, organism-based, Oryctolagus cuniculus
Oryctolagus cuniculus [15] = species: Oryctolagus cuniculus; test: Biodistribution in rabbit whole body at 20 MBq after 3.0 hrs; type: ADME, organism-based
Brain [16] = test: Biodistribution in rabbit brain at 20 MBq after 20.0 hrs; type: ADME, organism-based, Oryctolagus cuniculus
Oryctolagus cuniculus [17] = species: Oryctolagus cuniculus; test: Biodistribution in rabbit whole body at 20 MBq after 1 hr; type: ADME, organism-based
Thyroid gland [18] = test: Biodistribution in rabbit thyroid at 20 MBq after 0.5 hrs; type: ADME, organism-based, Oryctolagus cuniculus
Thyroid gland [19] = test: Biodistribution in rabbit thyroid at 20 MBq after 2.5 hrs; type: ADME, organism-based, Oryctolagus cuniculus
Oryctolagus cuniculus [20] = species: Oryctolagus cuniculus; test: Biodistribution in rabbit whole body at 20 MBq after 20.0 hrs; type: ADME, organism-based
Brain [21] = test: Biodistribution in rabbit brain at 20 MBq after 2.5 hrs; type: ADME, organism-based, Oryctolagus cuniculus
Lung [22] = test: Biodistribution in rabbit lung at 20 MBq after 1 hr; type: ADME, organism-based, Oryctolagus cuniculus
Brain [23] = test: Biodistribution in rabbit brain at 20 MBq after 1 hr; type: ADME, organism-based, Oryctolagus cuniculus
Lung [24] = test: Biodistribution in rabbit lung at 20 MBq after 3.0 hrs; type: ADME, organism-based, Oryctolagus cuniculus
Lung [25] = test: Biodistribution in rabbit lung at 20 MBq after 2.0 hrs; type: ADME, organism-based, Oryctolagus cuniculus
Lung [26] = test: Biodistribution in rabbit lung at 20 MBq; type: ADME, organism-based, Oryctolagus cuniculus
Oryctolagus cuniculus [27] = species: Oryctolagus cuniculus; test: Biodistribution in rabbit whole body at 20 MBq after 1.5 hrs; type: ADME, organism-based
Brain [28] = test: Biodistribution in rabbit brain at 20 MBq after 3.0 hrs; type: ADME, organism-based, Oryctolagus cuniculus
Thyroid gland [29] = test: Biodistribution in rabbit thyroid at 20 MBq after 1 hr; type: ADME, organism-based, Oryctolagus cuniculus
Thyroid gland [30] = test: Biodistribution in rabbit thyroid at 20 MBq after 20.0 hrs; type: ADME, organism-based, Oryctolagus cuniculus
Oryctolagus cuniculus [31] = species: Oryctolagus cuniculus; test: Biodistribution in rabbit whole body at 20 MBq after 0.5 hrs; type: ADME, organism-based
Thyroid gland [32] = test: Biodistribution in rabbit thyroid at 20 MBq after 1.5 hrs; type: ADME, organism-based, Oryctolagus cuniculus

SMILES: CN1CCN(C2=Nc3cc([123I])ccc3Nc3ccccc32)CC1 [[123I]I-OZAPINE]
- Drug uptake (Brain [1]): 1.5 %ID
- Drug uptake (Lung [2]): 10.7 %ID
- Drug uptake (Oryctolagus cuniculus [3]): 100 %ID
- Drug uptake (Lung [4]): 2.3 %ID
- Drug uptake (Brain [5]): 2.2 %ID
- Drug uptake (Oryctolagus cuniculus [6]): 99.4 %ID
- Drug uptake (Brain [7]): 2.2 %ID
- Drug uptake (Thyroid gland [8]): 1.4 %ID
- Drug uptake (Oryctolagus cuniculus [9]): 97.4 %ID
- Drug uptake (Brain [10]): 1.6 %ID
- Drug uptake (Thyroid gland [11]): 1.4 %ID
- Drug uptake (Thyroid gland [12]): 1.5 %ID
- Drug uptake (Lung [13]): 8.1 %ID
- Drug uptake (Lung [14]): 6 %ID
- Drug uptake (Oryctolagus cuniculus [15]): 96.9 %ID
- Drug uptake (Brain [16]): 0.7 %ID
- Drug uptake (Oryctolagus cuniculus [17]): 95.8 %ID
- Drug uptake (Thyroid gland [18]): 1.4 %ID
- Drug uptake (Thyroid gland [19]): 1.2 %ID
- Drug uptake (Oryctolagus cuniculus [20]): 54.6 %ID
- Drug uptake (Brain [21]): 1.5 %ID
- Drug uptake (Lung [22]): 10.4 %ID
- Drug uptake (Brain [23]): 1.8 %ID
- Drug uptake (Lung [24]): 6.4 %ID
- Drug uptake (Lung [25]): 7.6 %ID
- Drug uptake (Lung [26]): 14.7 %ID
- Drug uptake (Oryctolagus cuniculus [27]): 97.7 %ID
- Drug uptake (Brain [28]): 1.2 %ID
- Drug uptake (Thyroid gland [29]): 1.4 %ID
- Drug uptake (Thyroid gland [30]): 1.9 %ID
- Drug uptake (Oryctolagus cuniculus [31]): 98.7 %ID
- Drug uptake (Thyroid gland [32]): 1.3 %ID
